Data reported in patent publication US9144239B2, “Macrocyclic picolinamides as fungicides” (DOW AGROSCIENCES LLC, priority 2012, dated 2015).
Read-outs that look alike come from different tables or passages of the source.

What was measured:
[1] = system: Mycosphaerella graminicola; anamorph: Septoria tritici; assay: Fungicidal activity: leaf blotch of wheat (SEPTTR), wheat seedlings; format: in vivo; conditions: Zymoseptoria tritici
In short: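 Percent control derives from disease severity on treated versus untreated first leaves, rated 0–100% when symptoms were fully expressed on untreated plants. Yuma seedlings were inoculated with S. tritici spores either before or after spraying to run-off. The spray was acetone solution diluted 1:9 in water with 110 ppm Triton X-100. Infection took place in 100% RH dew chambers, then a 20 °C greenhouse.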

[2] = system: Puccinia triticina; synonym: Puccinia recondita f. sp. tritici; assay: Fungicidal activity: wheat brown rust (PUCCRT), wheat seedlings; format: in vivo
In short: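 Wheat (Yuma) seedlings at first-leaf stage, inoculated with Puccinia triticina spores before or after treatment, held overnight in dark dew room at 22° C, 100% RH, then greenhouse at 24° C. Acetone solutions diluted with nine volumes water containing 110 ppm Triton X-100, sprayed to run-off. Percent disease control derived from severity (0–100%) relative to untreated plants.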

[3] = system: Puccinia triticina; synonym: Puccinia recondita f. sp. tritici; assay: Fungicide mobility (dropline mobility test): wheat brown rust (PUCCRT); format: in vivo; conditions: 1 ug/leaf
Description: Evaluation of Fungicide Mobility: Wheat Brown Rust (Puccinia triticina; Synonym: Puccinia recondita f. sp. tritici; Bayer Code PUCCRT) “Yuma” wheat seedlings were used in the test. One mg of compound was dissolved in 9 μl of EC blank (emulsifiable concentrate) and 500 μl of acetone. Acetone was then evaporated overnight by leaving the vial open in a fume hood. Two milliliters of water containing 110 ppm Triton X-100 was added to each vial to prepare application solutions. A 2 μl drop of formulated material was applied to a marked line on the adaxial surface 5 cm from the leaf tip of the primary leaves. The primary leaves were kept in a horizontal position. Each treatment had 6 replicates. Plants were inoculated with PUCCRT 1-day after (1DPM) or 3-day prior to (3DCM) compound applications. When rust was fully expressed on primary leaves on control plants, the zone of treated leaves that was disease-free in the acropetal direction was measured with a ruler and converted to percent of the distance from marked line to leaf tip.

Venturia inaequalis = assay: Fungicidal activity: apple scab (VENTIN); format: in vivo; conditions: 24 h, 1 Day Protectant, read-out: Disease Control VENTIN 1 DP
Description: Technical grades of materials were dissolved in acetone, which were then mixed with nine volumes of water containing 110 ppm Triton X-100. The fungicide solutions were applied onto wheat seedlings using an automated booth sprayer to run-off. All sprayed plants were allowed to air dry prior to further handling. Wheat plants (variety Yuma) were grown from seed in a greenhouse in 50% mineral soil/50% soil-less Metro mix until the first leaf was fully emerged, with 7-10 seedlings per pot. These plants were inoculated with an aqueous spore suspension of Septoria tritici either prior to or after fungicide treatments. After inoculation the plants were kept in 100% relative humidity (one day in a dark dew chamber followed by two to three days in a lighted dew chamber at 20° C.) to permit spores to germinate and infect the leaf. The plants were then transferred to a greenhouse set at 20° C. for disease to develop. When disease symptoms were fully expressed on the 1st leaves of untreated plants, infection levels were assessed on a scale of 0 to 100 percent disease severity. Percent disease control was calculated using the ratio of disease severity on treated plants relative to untreated plants. Evaluation of Fungicidal Activity: Apple Scab (Venturia inaequalis; Bayer Code […]) Apple seedlings (variety McIntosh) were grown in soil-less Metro mix, with one plant per pot. Seedlings with two expanding young leaves at the top (older leaves at bottom of the plants were trimmed) were used in the test. Plants were inoculated with a spore suspension of Venturia inaequalis 24 hr after fungicide treatment and kept in a 22° C. dew chamber with 100% RH for 48 hr, and then moved to a greenhouse set at 20° C. for disease to develop. Fungicide formulation, application and disease assessment on the sprayed leaves followed the procedures as described in the Example A.

Uncinula necator = assay: Fungicidal activity: grape powdery mildew (UNCINE); format: in vivo; conditions: Erysiphe necator, 24 h, 1 Day Protectant, read-out: Disease Control UNCINE 1 DP
Description: Technical grades of materials were dissolved in acetone, which were then mixed with nine volumes of water containing 110 ppm Triton X-100. The fungicide solutions were applied onto wheat seedlings using an automated booth sprayer to run-off. All sprayed plants were allowed to air dry prior to further handling. Wheat plants (variety Yuma) were grown from seed in a greenhouse in 50% mineral soil/50% soil-less Metro mix until the first leaf was fully emerged, with 7-10 seedlings per pot. These plants were inoculated with an aqueous spore suspension of Septoria tritici either prior to or after fungicide treatments. After inoculation the plants were kept in 100% relative humidity (one day in a dark dew chamber followed by two to three days in a lighted dew chamber at 20° C.) to permit spores to germinate and infect the leaf. The plants were then transferred to a greenhouse set at 20° C. for disease to develop. When disease symptoms were fully expressed on the 1st leaves of untreated plants, infection levels were assessed on a scale of 0 to 100 percent disease severity. Percent disease control was calculated using the ratio of disease severity on treated plants relative to untreated plants. Evaluation of Fungicidal Activity: Grape Powdery Mildew (Uncinula necator; Bayer Code […]) Grape seedlings (variety Carignane) were grown in soil-less Metro mix, with one plant per pot, and used in the test when approximately one month old. Plants were inoculated 24 hr after fungicide treatment by shaking spores from infected leaves over test plants. Plants were maintained in a greenhouse set at 20° C. until disease was fully developed. Fungicide formulation, application and disease assessment on the sprayed leaves followed the procedures as described in the Example A.

[4] = 24 h, read-out: Disease Control SEPTTR 1DP
[5] = 72 h, read-out: Disease Control SEPTTR 3DC
[6] = 24 h, read-out: Disease Control PUCCRT 1DP
[7] = 72 h, read-out: Disease Control PUCCRT 3DC
[8] = 24 h, 1 Day Protectant Mobility, read-out: Dropline Mobility Test PUCCRT 1DPM
[9] = 72 h, 3 Day Curative Mobility, read-out: Dropline Mobility Test PUCCRT 3DCM
[10] = 72 h, 100 ppm, 3 Day Curative, wheat, read-out: Disease Control SEPTTR 3DC
[11] = 24 h, 100 ppm, 1 Day Protectant, wheat, read-out: Disease Control SEPTTR 1DP
[12] = 24 h, 100 ppm, 1 Day Protectant, wheat, read-out: Disease Control PUCCRT 1DP
[13] = 72 h, 100 ppm, 3 Day Curative, wheat, read-out: Disease Control PUCCRT 3DC

Row | Compound | pest or weed control at 100 ppm [1, 4] | pest or weed control at 100 ppm [1, 5] | pest or weed control at 100 ppm [2, 6] | pest or weed control at 100 ppm [2, 7] | pest or weed control at 1 µg/leaf [3, 8] | pest or weed control at 1 µg/leaf [3, 9] | melting point | pest or weed control at 100 ppm [1, 10] | pest or weed control at 100 ppm [1, 11] | pest or weed control at 100 ppm [2, 12] | pest or weed control at 100 ppm [2, 13] | pest or weed control at 100 ppm (Venturia inaequalis) | pest or weed control at 100 ppm (Uncinula necator)
1 | COc1ccnc(C(=O)N[C@H]2COC[C@H](OCC(C)C)[C@@H](Oc3ccccc3)[C@H](C)OC2=O)c1O [Compound 82, 3-hydroxy-N-((3S,7S,8S,9S)-7-isobutoxy-9-methyl-2-oxo-8-phenoxy-1,5-dioxonan-3-yl)-4-methoxypicolinamide] | 80 to 100% | 0 to 80% | 80 to 100% | 80 to 100% | 80 to 100% | 0 to 80% | 117 to 119 °C | – | – | – | – | – | –
2 | COc1ccnc(C(=O)N[C@H]2COC[C@H](OC)[C@@H](OC)[C@H](C)OC2=O)c1O [Compound 63, N-((3S,7S,8S,9S)-7,8-dimethoxy-9-methyl-2-oxo-1,5-dioxonan-3-yl)-3-hydroxy-4-methoxypicolinamide] | – | – | – | – | 0 to 80% | – | 165 to 167 °C | 0 to 80% | – | – | – | – | –
3 | COc1ccnc(C(=O)N[C@H]2COC[C@H](OCC(C)C)[C@@H](OCC(C)C)[C@H](C)OC2=O)c1O [Compound 1, N-((3S,7S,8S,9S)-7,8-diisobutoxy-9-methyl-2-oxo-1,5-dioxonan-3-yl)-3-hydroxy-4-methoxypicolinamide] | – | – | – | – | 80 to 100% | 80 to 100% | 111 to 113 °C | 80 to 100% | 80 to 100% | 80 to 100% | 80 to 100% | – | –
4 | CCCCO[C@H]1COC[C@H](NC(=O)c2nccc(OC)c2OCOC(C)=O)C(=O)O[C@@H](C)[C@@H]1OCc1ccccc1 [Compound 35] | – | – | – | – | – | – | – | 80 to 100% | 80 to 100% | 80 to 100% | 80 to 100% | 0 to 80% | 0 to 80%
5 | CCCCO[C@H]1COC[C@H](NC(=O)c2nccc(OC)c2O)C(=O)O[C@@H](C)[C@@H]1OCC(C)(C)Cl [Compound 87, N-((3S,7S,8S,9S)-7-butoxy-8-(2-chloro-2-methylpropoxy)-9-methyl-2-oxo-1,5-dioxonan-3-yl)-3-hydroxy-4-methoxypicolinamide] | – | – | – | – | 0 to 80% | 80 to 100% | 115 to 117 °C | – | – | – | – | – | –
6 | COc1ccnc(C(=O)N[C@H]2COC[C@H](OC3CCCCC3)[C@@H](OCC(C)C)[C@H](C)OC2=O)c1O [Compound 73] | – | – | – | – | 0 to 80% | 0 to 80% | 122 to 125 °C | 80 to 100% | 80 to 100% | 80 to 100% | 80 to 100% | – | –
7 | COc1ccnc(C(=O)N[C@H]2COC[C@H](O)[C@@H](OCC(C)C)[C@H](C)OC2=O)c1O [Compound 72, 3-hydroxy-N-((3S,7S,8R,9S)-7-hydroxy-8-isobutoxy-9-methyl-2-oxo-1,5-dioxonan-3-yl)-4-methoxypicolinamide] | – | – | – | – | 0 to 80% | 0 to 80% | 121 to 124 °C | 0 to 80% | 0 to 80% | 0 to 80% | 0 to 80% | – | –
8 | CCCCO[C@H]1COC[C@H](NC(=O)c2nccc(OC)c2OCOC(C)=O)C(=O)O[C@@H](C)[C@@H]1OCCC [Compound 45] | – | – | – | – | – | – | – | 80 to 100% | 80 to 100% | 80 to 100% | 80 to 100% | 0 to 80% | 80 to 100%
9 | COc1ccnc(C(=O)N[C@H]2COC[C@H](OCc3ccccc3)[C@@H](OCc3ccccc3)[C@H](C)OC2=O)c1O [Compound 11, N-((3S,7S,8S,9S)-7,8-bis(benzyloxy)-9-methyl-2-oxo-1,5-dioxonan-3-yl)-3-hydroxy-4-methoxypicolinamide] | – | – | – | – | 0 to 80% | 0 to 80% | 144 to 146 °C | 0 to 80% | 80 to 100% | 80 to 100% | 80 to 100% | – | –
10 | COc1ccnc(C(=O)N[C@H]2COC[C@H](OCc3ccccc3)[C@@H](OCc3ccccc3)COC2=O)c1OCOC(=O)C(C)C [Compound 6] | – | – | – | – | – | – | – | 0 to 80% | 0 to 80% | 80 to 100% | – | 0 to 80% | 0 to 80%
11 | COc1ccnc(C(=O)N[C@H]2COC[C@H](OCC3CC3)[C@@H](OCC3CC3)[C@H](C)OC2=O)c1O [Compound 209] | – | – | – | – | – | – | 114 to 117 °C | 0 to 80% | – | 0 to 80% | 0 to 80% | – | –
12 | CCCCO[C@H]1COC[C@H](NC(=O)c2nccc(OC)c2O)C(=O)O[C@@H](C)[C@@H]1OCc1ccccc1 [Compound 33, N-((3S,7S,8S,9S)-8-(benzyloxy)-7-butoxy-9-methyl-2-oxo-1,5-dioxonan-3-yl)-3-hydroxy-4-methoxypicolinamide] | 80 to 100% | 0 to 80% | 80 to 100% | 80 to 100% | – | – | 117 to 119 °C | – | – | – | – | – | –
13 | CCCCO[C@H]1COC[C@H](NC(=O)c2nccc(OC)c2O)C(=O)O[C@@H](C)[C@@H]1OCC(C)C [Compound 48, N-((3S,7S,8S,9S)-7-butoxy-8-isobutoxy-9-methyl-2-oxo-1,5-dioxonan-3-yl)-3-hydroxy-4-methoxypicolinamide] | – | – | – | – | – | – | 104 to 106 °C | 80 to 100% | 80 to 100% | 80 to 100% | 80 to 100% | – | –
14 | COc1ccnc(C(=O)N[C@H]2COC[C@H](Oc3ccccc3)[C@@H](OCC(C)C)[C@H](C)OC2=O)c1O [Compound 83] | – | – | – | – | 80 to 100% | 0 to 80% | 112 to 113 °C | 80 to 100% | 80 to 100% | 80 to 100% | 80 to 100% | – | –
